The values that follow come from paper PMC11969009 (Nature Communications, 2025).

The test system of one experiment is SARS-CoV-2 P21. Details: species or system C57BL/6 (WT) mice. As to conditions: mouse, in vivo.
The target in another experiment is NL63 PL2pro (Human coronavirus NL63, UniProt P0C6X5). The experiment in a line: biochemical. Set-up: inhibition of NL63 PL2pro, UbRh dose-response replicate value: unit: %.
The next experiment concerns the target SARS-CoV PLpro (Severe acute respiratory syndrome coronavirus, UniProt P0C6X7). In words: biochemical. Set-up: inhibition of SARS-CoV PLpro, UbRh dose-response replicate value: unit: %.
In a further experiment the target is 229E PL2pro (Human coronavirus 229E, UniProt P0C6X1). The experiment in a line: biochemical. Set-up: inhibition of 229E PL2pro, UbRh dose-response replicate value: unit: %.
In the next experiment the target is OC43 PLpro (Human coronavirus OC43, UniProt P0C6X6). It counts as biochemical. Set-up: unit not given here.
A further experiment deals with SARS-CoV-2 PLpro (Severe acute respiratory syndrome coronavirus 2, UniProt P0DTD1). In words: biochemical.
The target in a further experiment is HKU1 PLpro (Human coronavirus HKU1, UniProt P0C6X2). The experiment in a line: biochemical. Details: inhibition of HKU1 PLpro, UbRh dose-response replicate value: unit: %. Format: biochemical.
Another experiment has as its target MERS-CoV PLpro (Middle East respiratory syndrome-related coronavirus, UniProt K9N7C7). Format: biochemical. Details: unit: %.
The next experiment addresses USP21 (Homo sapiens, UniProt Q9UK80). It counts as biochemical.
In experiment [1] the test system is SARS-CoV-2 clinical isolate VIC001. In words: microbe, parasite or virus in culture. It counts as cell-based.

The structures appear in SMILES notation. Where “and” joins values, the source holds several entries; their conditions need not be identical. Identical values can stand only once. Like-named read-outs stand apart in the source and are kept apart here.

MERS-CoV PLpro, sequence (K9N7C7 1482-1803 limits assumed): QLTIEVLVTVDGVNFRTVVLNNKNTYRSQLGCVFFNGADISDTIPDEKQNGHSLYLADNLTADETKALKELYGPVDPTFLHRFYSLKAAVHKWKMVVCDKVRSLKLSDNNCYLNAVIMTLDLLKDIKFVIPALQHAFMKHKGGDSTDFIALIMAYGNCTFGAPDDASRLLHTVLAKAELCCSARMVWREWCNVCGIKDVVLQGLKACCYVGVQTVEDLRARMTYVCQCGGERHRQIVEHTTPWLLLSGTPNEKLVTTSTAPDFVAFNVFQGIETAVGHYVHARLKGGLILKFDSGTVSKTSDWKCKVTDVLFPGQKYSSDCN
HKU1 PLpro, sequence (P0C6X2 1648-1958 limits assumed): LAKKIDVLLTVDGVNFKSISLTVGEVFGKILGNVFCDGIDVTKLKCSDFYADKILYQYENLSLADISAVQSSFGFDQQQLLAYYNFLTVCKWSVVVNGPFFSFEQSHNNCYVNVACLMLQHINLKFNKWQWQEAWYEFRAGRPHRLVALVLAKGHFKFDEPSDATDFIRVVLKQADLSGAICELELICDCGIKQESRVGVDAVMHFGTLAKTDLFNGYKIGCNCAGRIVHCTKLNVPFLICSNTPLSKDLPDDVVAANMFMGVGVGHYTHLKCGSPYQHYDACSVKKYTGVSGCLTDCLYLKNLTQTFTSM
OC43 PLpro, sequence (P0C6X6 1561-1872 limits assumed): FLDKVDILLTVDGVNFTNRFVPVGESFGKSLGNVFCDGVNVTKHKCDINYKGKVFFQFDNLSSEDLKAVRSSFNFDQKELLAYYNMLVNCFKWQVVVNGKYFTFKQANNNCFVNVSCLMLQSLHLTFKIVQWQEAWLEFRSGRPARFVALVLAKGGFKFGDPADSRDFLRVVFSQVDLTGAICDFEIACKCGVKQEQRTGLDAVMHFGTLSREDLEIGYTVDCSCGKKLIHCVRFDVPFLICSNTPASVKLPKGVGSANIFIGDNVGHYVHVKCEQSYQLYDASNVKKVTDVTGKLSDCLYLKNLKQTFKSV
NL63 PL2pro, sequence (P0C6X5 1578-1876 limits assumed): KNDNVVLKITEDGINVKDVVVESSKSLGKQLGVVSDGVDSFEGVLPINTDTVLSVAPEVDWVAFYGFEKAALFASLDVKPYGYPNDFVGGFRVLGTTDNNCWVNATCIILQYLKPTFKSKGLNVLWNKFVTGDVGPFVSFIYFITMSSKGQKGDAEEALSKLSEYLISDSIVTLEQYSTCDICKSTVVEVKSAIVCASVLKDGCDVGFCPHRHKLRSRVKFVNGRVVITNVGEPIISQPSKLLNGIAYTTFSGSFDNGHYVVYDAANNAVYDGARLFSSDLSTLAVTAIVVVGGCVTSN
229E PL2pro, sequence (P0C6X1 1599-1905 limits assumed): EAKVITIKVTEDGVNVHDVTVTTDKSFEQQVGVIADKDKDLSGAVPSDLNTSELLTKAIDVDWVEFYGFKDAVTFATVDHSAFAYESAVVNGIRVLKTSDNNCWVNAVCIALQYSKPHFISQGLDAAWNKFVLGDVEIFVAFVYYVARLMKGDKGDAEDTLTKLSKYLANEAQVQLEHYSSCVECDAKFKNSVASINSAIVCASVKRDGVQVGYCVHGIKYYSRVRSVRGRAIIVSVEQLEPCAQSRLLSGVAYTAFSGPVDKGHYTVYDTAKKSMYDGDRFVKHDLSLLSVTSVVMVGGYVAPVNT
USP21, sequence (Q9UK80 whole entry): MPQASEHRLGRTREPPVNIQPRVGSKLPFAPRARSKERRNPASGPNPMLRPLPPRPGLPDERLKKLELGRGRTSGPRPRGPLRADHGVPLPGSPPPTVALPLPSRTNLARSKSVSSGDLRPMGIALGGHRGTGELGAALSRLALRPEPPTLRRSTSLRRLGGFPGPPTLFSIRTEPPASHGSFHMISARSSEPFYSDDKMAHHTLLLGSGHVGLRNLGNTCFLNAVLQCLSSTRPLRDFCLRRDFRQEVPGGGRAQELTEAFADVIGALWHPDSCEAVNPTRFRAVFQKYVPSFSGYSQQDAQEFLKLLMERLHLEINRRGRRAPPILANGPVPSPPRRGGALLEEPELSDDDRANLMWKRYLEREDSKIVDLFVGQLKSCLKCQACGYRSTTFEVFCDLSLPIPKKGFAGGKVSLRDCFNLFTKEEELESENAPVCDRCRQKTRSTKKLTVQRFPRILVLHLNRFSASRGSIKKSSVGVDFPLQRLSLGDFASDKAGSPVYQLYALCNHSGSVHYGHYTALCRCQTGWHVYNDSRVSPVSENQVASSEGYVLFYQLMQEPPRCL

Take `CCO/N=C(/c1ccc2cc(OC)ccc2c1)[C@@H]1CCCN([C@H]2CC[C@@H](O)CC2)C1` [P8-100]: in the experiment with SARS-CoV-2 P21, the “Log2 Fold change IL-4” value was -0.18 and the “Log2 Fold change IL-9” value was -6.78.

As to `CCO/N=C(/c1ccc2cc(OC)ccc2c1)[C@@H]1CCCN([C@H]2CC[C@@H](O)CC2)C1` [P8-150], the “Log2 Fold change IL-12p70” value in the experiment with SARS-CoV-2 P21 is -2.36.

As to `CO/N=C(/c1ccc2cc(OC)ccc2c1)[C@@H]1CCCN([C@H]2CC[C@@H](c3cc[nH]n3)CC2)C1` [WEHI-P70], the IC50 – broadly, the concentration at which inhibition is half-maximal – at NL63 PL2pro was found to be 648 nM; at SARS-CoV PLpro, 94 nM; at 229E PL2pro, 26000 nM; against SARS-CoV-2 PLpro (IC50 (UbRh) SARS-CoV-2 PLpro), 98 nM. Besides, the “inhibition of NL63 PL2pro, UbRh dose-response replicate value” against NL63 PL2pro was 96.5311 and 98.0786 and 97.1472 and 94.6147 and 95.7019 and 95.1407; against NL63 PL2pro (Conc 98 µM), 98.2213 and 99.4112 and 98.0123. Moreover, the “NL63 PL2pro, UbRh hCoV Pan Activity dose-response” value at NL63 PL2pro (Conc 3.63 µM) was 86.4411 and 86.623 and 87.2454 and 84.6973. Also, the inhibition at 98 µM on NL63 PL2pro (Conc 98 µM, read-out: inhibition of NL63 PL2pro, UbRh dose-response replicate value) was found to be 98.4%; at SARS-CoV PLpro (Conc 98 µM, read-out: inhibition of SARS-CoV PLpro, UbRh dose-response replicate value), 98.6%; on 229E PL2pro (read-out: inhibition of 229E PL2pro, UbRh dose-response replicate value, Conc 98 µM) it was 71.9%. For the same compound, the inhibition at […] at NL63 PL2pro (read-out: inhibition of NL63 PL2pro, UbRh dose-response replicate value) is 97.7% and 95.1%; at SARS-CoV PLpro (read-out: inhibition of SARS-CoV PLpro, UbRh dose-response replicate value), 99.4%; at 229E PL2pro (read-out: inhibition of 229E PL2pro, UbRh dose-response replicate value) it was 44.4% and 18.9%; on SARS-CoV-2 PLpro (read-out: SARS-CoV-2 PLpro, UbRh dose-response), 65.3% and 28.1%. Also, the “inhibition of SARS-CoV PLpro, UbRh dose-response replicate value” was 98.7016 and 99.911 and 99.674 and 98.9699 and 100.405 and 100.228 against SARS-CoV PLpro; 99.4348 and 99.7657 and 100.125 at SARS-CoV PLpro (Conc 98 µM). Moreover, the “SARS-CoV PLpro, UbRh hCoV Pan Activity dose-response” value was 11.412 and 10.2397 and 10.016 and 11.8574 on SARS-CoV PLpro (Conc 0.0149 µM); 31.6247 and 32.2323 and 27.9576 and 29.7371 on SARS-CoV PLpro (Conc 0.0448 µM); 97.8161 and 97.4695 and 97.9055 and 98.3366 at SARS-CoV PLpro (Conc 3.63 µM). Also, the “inhibition of 229E PL2pro, UbRh dose-response replicate value” was 46.2136 and 48.684 and 48.4508 and 18.0648 and 22.1853 and 20.9697 against 229E PL2pro; 70.621 and 72.3972 and 73.3316 against 229E PL2pro (Conc 98 µM). The “inhibition of OC43 PLpro, UbRh dose-response replicate value” against OC43 PLpro is -10.4521 and -4.6612 and -0.2116 and -6.41 and -12.4786 and -1.279 and -4.6859; at OC43 PLpro (Conc 98 µM), -8.82 and -6.432 and -0.556 and -3.797. Further, the inhibition at 0.545 µM at SARS-CoV-2 PLpro (Conc 0.545 µM, read-out: SARS-CoV-2 PLpro, UbRh dose-response) was 87.3%. Moreover, the inhibition at 1.63 µM on SARS-CoV-2 PLpro (Conc 1.63 µM, read-out: SARS-CoV-2 PLpro, UbRh dose-response) amounted to 96.4%. Besides, on SARS-CoV-2 PLpro (Conc 4.9 µM, read-out: SARS-CoV-2 PLpro, UbRh dose-response), the inhibition at 4.9 µM amounted to 102%. The “inhibition of HKU1 PLpro, UbRh dose-response replicate value” against HKU1 PLpro is -6.039 and -6.635 and 8.689 and -11.8697 and -9.542 and -8.165 and -7.3684 and -16.402; on HKU1 PLpro (Conc 98 µM), -3.115 and -4.878 and -6.077 and -8.873. In addition, the “inhibition of MERS-CoV PLpro, UbRh dose-response replicate value” on MERS-CoV PLpro is -8.262 and -6.812 and -8.29 and -8.637 and -10.7207 and -11.1211 and -8.564 and -8.857; against MERS-CoV PLpro (Conc 98 µM), -10.7242 and -11.7377 and -6.2046 and -4.979. For the same compound, the “selectivity over USP21” value at USP21 was “selective over USP21”.

With `CO/N=C(/c1ccc2cc(OC)ccc2c1)[C@@H]1CCCN([C@H]2CC[C@@H](O)CC2)C1` [WEHI P4], the “Ext Data Fig 2f dose response (0 µM = 100)” value in experiment [1] (concentration 0.01 µM) was 109.2308 and 92.5900 and 114.0845 and 104.0541 and 89.7436; in experiment [1] (concentration 0.02 µM) it was 101.5385 and 95.0600 and 95.7746 and 97.2973 and 106.4103; in experiment [1] (concentration 0.04 µM) it was 107.6923 and 74.0700 and 95.7746 and 91.8919 and 82.0513; in experiment [1] (concentration 0.08 µM), 93.8462 and 80.2500 and 109.8592 and 101.3514 and 93.5897; in experiment [1] (concentration 5 µM), 0.0000.
